{
  "source": "patent US20220275376A1",
  "about": "“TARGETING SLC38A2 IN PANCREATIC CANCER” (New York University, priority 2019, published 2022)",
  "key": {"PANC1 cells [1]": {"test_system": "PANC1 cells", "test": "Intracellular alanine levels in drug-treated PANC1 cells (GC-MS)", "type": "cell-based, human", "settings": "24 hours, PXT 10 μM, DPM 10, racemic FLX 10 or 25 μM, vs vehicle (DMSO)", "protocol": "(A) Western blot depicting SLC38A2 levels in PANC1 cells engineered to express SLC38A2 under control of doxycycline. Withdrawal of doxycycline results in a significant depletion in SLC38A2 levels after 24 hours.\nFluvoxamine (FVX), fluoxetine (FLX), paroxetine (PXT), sertindole (SND), and blonanserin (BNS) were acquired from Cayman Chemicals. Desipramine (DPM), α-(Methylamino) isobutyric acid (MeAIB), and L-alanine were acquired from Sigma. Stocks were prepared at 10 mM or 7.5 mM (BNS) in DMSO. Cells were treated with vehicle (DMSO) or varying concentrations of drug for indicated time. Conditioned media was collected and centrifuged at 1,000×g to remove cell debris followed by extraction of metabolites. For metabolite extraction, cells were first washed with ice cold 0.9% NaCl to remove media contamination followed by addition of 500 μL methanol (−20° C.) and 200 μL HPLC grade water (4° C.). Cells were scraped and pipeted into glass vials containing 500 μL chloroform (4° C.) and vortexed at 4° C. for 10-15 minutes. Aqueous and inorganic layers were separated by cold centrifugation for 15 minutes. 300 μL of the aqueous layer containing polar metabolites was transferred to sample vials (Agilent 5190-2243) and evaporated using a SpeedVac (Savant Thermo SPD111V). Dried samples were stored at −20° C. and re-evaporated for 5-10 minutes prior to derivatization and GC-MS analysis."}, "SLC38A2": {"molecular_target": "T1, SLC38A2 (Homo sapiens, UniProt Q96QD8)", "T1 construct": "expressed in transfected cells; host or cells: HY15549 cells with dox-inducible SNAT2", "T1 sequence (Q96QD8 1-506)": "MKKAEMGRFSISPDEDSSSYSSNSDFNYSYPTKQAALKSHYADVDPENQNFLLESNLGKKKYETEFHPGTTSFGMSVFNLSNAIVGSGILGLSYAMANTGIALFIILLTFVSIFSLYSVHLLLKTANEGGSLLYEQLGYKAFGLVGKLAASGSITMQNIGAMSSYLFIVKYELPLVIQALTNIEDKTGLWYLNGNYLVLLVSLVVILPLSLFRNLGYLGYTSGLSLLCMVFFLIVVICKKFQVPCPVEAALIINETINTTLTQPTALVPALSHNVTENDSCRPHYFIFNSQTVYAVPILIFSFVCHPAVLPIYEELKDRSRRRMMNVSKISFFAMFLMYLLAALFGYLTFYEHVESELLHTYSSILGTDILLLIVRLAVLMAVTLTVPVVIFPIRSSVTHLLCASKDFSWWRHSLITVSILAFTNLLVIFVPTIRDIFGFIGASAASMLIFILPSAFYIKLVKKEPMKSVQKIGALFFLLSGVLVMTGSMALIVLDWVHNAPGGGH", "test": "SLC38A2 activity measured by MeAIB uptake in HY15549 dox-inducible SNAT2 cells", "type": "cell-based", "settings": "for inhibition of MeAIB uptake (intracellular MeAIB levels): 20 μm compound, MeAIB 0.3 mM, 1 hour, vs vehicle (PBS), HY15549 cells expressing dox-inducible SLC38A2/SNAT2", "protocol": "(A) Schematic depicting SLC38A2-dependent update of alanine structural analog, methyl α-aminoisobutyrate (MeAIB). […] (B) Total ion chromatogram (TIC) of HY15549 dox-inducible SNAT2 cells treated with 1 mM MeAIB for 24 hours compared to vehicle (PBS). […] HY15549 dox-inducible SNAT2 cells were cultured with a concentration gradient of MeAIB for 15 minutes (gray circles) or 60 minutes (black squares). (D) Western blot depicting SLC38A2 expression relative to doxycycline after 24 hours culture in HY15549 dox-inducible SNAT2 cells. (E) Intracellular MeAIB levels in HY15549 dox-inducible cells cultured with dox (+SNAT2, left bar) and without dox (KO, right bar) for 24 hours with 1 mM MeAIB. (F) Intracellular MeAIB levels in HY15549 dox-inducible cells cultured with vehicle, paroxetine (PXT, 20 μM), or sertraline (SRT, 20 μm) for 24 hours with 300 μM MeAIB."}, "PANC1 cells [2]": {"test_system": "PANC1 cells", "test": "Orthotopic xenograft, PANC1 cells", "type": "in vivo, NCr nude mice", "settings": "for tumor burden (tumor weight after resection): PANC1 (5×10^5) pooled SLC38A2-deficient cells vs sgTom, 63 days; for tumor initiation: SLC38A2 knockdown PANC1 cells (5×10^5), orthotopic, vs shGFP, 3-D ultrasound, tumor if volume ≥1 mm^3", "protocol": "(§1) (A) SLC38A2 staining in pancreatic tumors derived from the KPC (LSL-Kras^G12D; Trp53^lox/+; p48Cre+) mouse model and normal murine pancreas. Representative fields from KPC (4×, left) and normal pancreas (10×, right) are depicted with scale bars. Arrows indicate instances of punctate SLC38A2 in normal pancreas (right). (B) Representative live cell images of HY19636 (left) and mPSC #1 (right) cells transiently transfected with 3 μg of SLC38A2-GFP (green) overnight and stained with MitoTracker (red) to visualize individual cells; scale bars are indicated in figures. […] Subcutaneous tumors were monitored bi-weekly by caliper measurement and considered formed if length and width were measured to be ≥1 mm each. […] Orthotopic xenografts were monitored by 3-D ultrasound bi-weekly and considered tumors if volume ≥1 mm^3. […] HY19636 (2.5×10^4) or PANC1 (5×10^5) control (sgTom) or pooled SLC38A2-deficient (sgSLC38A2 #1, #3) cells were injected orthotopically, and tumors were weighed following resection after 27 days (HY19636) or 63 days (PANC1). Error bars depict s.e.m. of tumors resected from 9-10 mice.\nFor orthotopic xenograft experiments, PANC1 cells were infected with lentiviral shRNAs or sgRNAs targeting SLC38A2 or GFP/Tomato as a control and selected with puromycin (2 μg/mL) for three days. For syngeneic orthotopic allograft studies, HY19636 cells were infected with lentiviral sgRNAs targeting SLC38A2 or Tomato and selected with puromycin (2 μg/mL) for three days. 500,000 PANC1 cells or […] HY19636 cells were resuspended in 10 μl HBSS and 10 μl growth factor-reduced matrigel (Corning 356231) per injection and kept on ice. Female 7-8 week old NCr nude or C57BL/6J mice were used for xenograft and allograft experiments, respectively. An incision was made near the spleen which was gently removed from the peritoneal space to expose the pancreas. The 20 μL cell:matrigel suspension was slowly injected into the tail of the exposed pancreas using either a Hamilton or insulin syringe (BD 324702). After injection, the needle was held in place by tweezers briefly to allow the matrigel to polymerize before gently removing the needle and re-introducing the spleen and pancreas into the animal. The peritoneum was sutured and the wound was closed with surgical staples. Buprenorphine was administered by intraperitoneal injection and immediately after surgery and every 12 hours for 48 hours.\nAfter injection, all mice were allowed to recover from surgery for five days before screening for tumor initiation by non-invasive 3-D ultrasound imaging (VisualSonics Vevo 770) twice a week under anesthesia using 1-3% isoflurane via nose cone. Tumor initiation was considered if volume ≥1 mm^3 and sustained or increased in volume over the course of the experiment. […]"}, "HY19636 cells": {"test_system": "HY19636 cells", "test": "Orthotopic syngeneic allograft, HY19636 cells", "type": "in vivo, C57BL/6J mice", "settings": "HY19636 (2.5×10^4) pooled SLC38A2-deficient cells vs sgTom, 27 days", "protocol": "as §1\nFor orthotopic xenograft experiments, PANC1 cells were infected with lentiviral shRNAs or sgRNAs targeting SLC38A2 or GFP/Tomato as a control and selected with puromycin (2 μg/mL) for three days. […]"}, "PANC1 cells [3]": {"test_system": "PANC1 cells", "test": "Subcutaneous xenograft tumor initiation, PANC1 cells co-injected with hPSC #1 cells", "type": "in vivo, NCr nude mice", "settings": "SLC38A2 knockdown PANC1 cells (2×10^5) co-injected with hPSC #1 cells (1×10^6), vs shGFP; tumor if length and width ≥1 mm", "protocol": "(A) SLC38A2 staining in pancreatic tumors derived from the KPC (LSL-Kras^G12D; Trp53^lox/+; p48Cre+) mouse model and normal murine pancreas. Representative fields from KPC (4×, left) and normal pancreas (10×, right) are depicted with scale bars. Arrows indicate instances of punctate SLC38A2 in normal pancreas (right). (B) Representative live cell images of HY19636 (left) and mPSC #1 (right) cells transiently transfected with 3 μg of SLC38A2-GFP (green) overnight and stained with MitoTracker (red) to visualize individual cells; scale bars are indicated in figures. […] Subcutaneous tumors were monitored bi-weekly by caliper measurement and considered formed if length and width were measured to be ≥1 mm each. […] Orthotopic xenografts were monitored by 3-D ultrasound bi-weekly and considered tumors if volume ≥1 mm^3. […]\nFor subcutaneous co-injection tumor initiation studies, PANC1 cells were infected with lentiviral shRNAs targeting SLC38A2 or GFP as a control shRNA and selected with puromycin (2 μg/mL) for three days. […] Tumor initiation was monitored two to three times per week by caliper measurement. Tumor initiation was considered if length and width were measured to be ≥1 mm each."}},
  "data": [
    {"compound": "CNCCC(Oc1ccc(C(F)(F)F)cc1)c1ccccc1", "note": "(racemic) [fluoxetine]", "values": [
      {"measurement": "reduction of intracellular alanine levels", "setting": "PANC1 cells [1]", "value": "~50", "unit": "%"}
    ]},
    {"compound": "CNC(C)(C)C(=O)O", "note": "[MeAIB, α-(Methylamino) isobutyric acid]", "values": [
      {"measurement": "Km", "setting": "SLC38A2; HY15549 dox-inducible SNAT2 cells, MeAIB concentration gradient, 15 or 60 minutes, read-out: Km of MeAIB uptake (Michaelis-Menten kinetics)", "value": "~3.5", "unit": "mM"}
    ]},
    {"compound": "CNCCCN1c2ccccc2CCc2ccccc21", "note": "[desipramine]", "values": [
      {"measurement": "reduction of intracellular alanine levels", "setting": "PANC1 cells [1]", "value": "~50", "unit": "%"}
    ]},
    {"compound": "Fc1ccc([C@@H]2CCNC[C@H]2COc2ccc3c(c2)OCO3)cc1", "note": "[paroxetine]", "values": [
      {"measurement": "reduction of intracellular alanine levels", "setting": "PANC1 cells [1]", "value": "~50", "unit": "%"},
      {"measurement": "inhibition of MeAIB uptake (intracellular MeAIB levels)", "setting": "SLC38A2", "value": "inhibited"}
    ]},
    {"compound": "CN[C@H]1CC[C@@H](c2ccc(Cl)c(Cl)c2)c2ccccc21", "note": "[sertraline]", "values": [
      {"measurement": "inhibition of MeAIB uptake (intracellular MeAIB levels)", "setting": "SLC38A2", "value": "inhibited"}
    ]},
    {"compound": "sgSLC38A2 #1: CRISPR sgRNA targeting SLC38A2, TAATCTGAGCAATGCGATTG (SEQ ID NO:7) (expressed or natural sequence)", "values": [
      {"measurement": "tumor burden (tumor weight after resection)", "setting": "PANC1 cells [2]", "value": "significantly reduced tumor burden"},
      {"measurement": "tumor burden (tumor weight after resection)", "setting": "HY19636 cells", "value": "significantly reduced tumor burden"}
    ]},
    {"compound": "sgSLC38A2 #3: CRISPR sgRNA targeting SLC38A2, TCTTATGCCATGGCTAATAC (SEQ ID NO:8) (expressed or natural sequence)", "values": [
      {"measurement": "tumor burden (tumor weight after resection)", "setting": "PANC1 cells [2]", "value": "significantly reduced tumor burden"},
      {"measurement": "tumor burden (tumor weight after resection)", "setting": "HY19636 cells", "value": "significantly reduced tumor burden"}
    ]},
    {"compound": "shSLC38A2 #1: lentiviral shRNA targeting SLC38A2, GGAGAAGATACTGTGGCAA (SEQ ID NO:2), TRCN0000020243", "values": [
      {"measurement": "tumor initiation", "setting": "PANC1 cells [3]", "value": "significantly suppressed"},
      {"measurement": "tumor initiation", "setting": "PANC1 cells [2]", "value": "significantly suppressed"}
    ]},
    {"compound": "shSLC38A2 #4: lentiviral shRNA targeting SLC38A2, GAATACCAAGAGTTGTTTCTA (SEQ ID NO:3), TRCN0000020241", "values": [
      {"measurement": "tumor initiation", "setting": "PANC1 cells [3]", "value": "significantly suppressed"},
      {"measurement": "tumor initiation", "setting": "PANC1 cells [2]", "value": "significantly suppressed"}
    ]}
  ]
}
